# Measured values as given in patent EP0374267A1, “DERIVATIVES OF PLATINUM (P) WITH A POLYANION OF DEOXYRIBONUCLEIC ACID, METHOD FOR OBTAINING THEM AND PHARMACEUTICAL ANTITUMOR PREPARATION BASED ON THEM” (priority 1988, dated 1989).
# Columns and labels:
# [1] = tested on: zelluläre Immunität; test: Cellular immunity: rejection time of a skin allograft in tumour-bearing rats; format: in vivo, Männchenratten der Wistar-Linie; conditions: treated tumour bearers; i.p. 3x at 24 h; I 17,1, II 17,1, III 27,3, DNS 12,0, CDDP 8,1 mg/kg
# From the text: Der Einfluss auf die zelluläre Immunität bewertete man nach der Zeit der Abstossung eines Allotransplantats der Haut eines Tumorträgers.
# Der Einfluss der beanspruchten Stoffe auf die zelluläre Immunität wurde an Männchenratten der Wistar-Linie mit einem Gewicht von 150 bis 200 g untersucht. Den Tieren wurde ein Hautlappen mit Abmessungen 2 x 3 cm^2 von den Ratten der August-Linie in die Rückengegend transplantiert. Dann wurden denselben Tieren subkutan 2.10^8 Zellen der Shvetz-Erythromyelose in die Hüfte inokuliert. Am 4. bis 6. […] Zum Vergleich verwendete man die DNS- und CDDP-Präparate, die amn in einer Salz-lösung nach dem gleichen'Schema in Dosen von 12,0 und 8,1 mg/kg einführte. Als Kontrolle dienten intakte Tiere. Die Zeit der Abstossung des Hautlappens fixierte man nach der Änderung seiner Temperatur, Farbe und Elastizität.
# [2] = pH of a solution in citrate-salt solution (potentiometric); format: physicochemical; conditions: 0,015 g (II: 0,018 g) in 1000 ml Zitrat-Salz-Lösung, 20°C
# Description: Die erfindung sgemässe Verbindung, Poly{hexakis-[Chloroammindiaquaplatin (II)]} - µ - desoxyribonukleat fol- ^gender Formel: [drawing 3] worin n = 1900±90, m = bn,- DNS = (̵C39H49O32N15P4)̵n ..., verliert bei Erhitzung innerhalb von IO Stunden bei einer Temperatur von I80 bis 200°C alle Wassermoleküle. Der Stoff lässt sich schlecht in Wasser, Methanol, Athanol auflösen, er ist nichthygroskopisch. Seine Löslichkeit in wasser bei einer Temperatur von 20°C beträgt 0,002%. Eine Lösung von 0,015 g des beanspruchten Stoffes in I000 ml einer Zitrat-Salz-Lösung (0,015 Mol NaCl + 0,0015 Mol Natriumzitrat) bei einer Temperatur von 20°C hat einen pH-Wert von 5,42 (pH- potentiometrisch).
# [3] = Antibody (agglutinin) titre in serum of intact mice immunised with sheep erythrocytes; format: in vivo, Mäuse-Linien CBA und C57Bl6
# From the text: Der Einfluss der beanspruchten Stoffe auf die Antitelogenese wurde auch an zwei gegensätzlich auf Hammelerythrozyte reagierenden Mäuse-Linien: CBA und C57Bl6 untersucht. Man verwendete Tiere mit einem Gewicht von 20+2 g, die einer Quarantäne innerhalb von mindestens 20 Tagen ausgesetzt wurden. […] In einer Stunde wurden die Tiere immunisiert, indem man ihnen intraperitoneal I0^8 Zellen der Hammelerythrozyte einführt..Am 7., 14. und 30. Tag tötete man die Tiere und ermittelte man den Gehalt an Agglutininen im Blutserum in an sich bekannter Weise. Die Ergebnisse wurden in Form lg2 der Antikörper-Titer ausgedrückt. Die Ergebnisse sind in der Tabelle 5 angeführt.
# [4] = tested on: Shvetz-Erythromyelose; test: Antineoplastic activity against transplanted Shvetz erythromyelosis in rats; format: in vivo, weissen rassenlosen Ratten; conditions: for Grad der Hemmung des Wachstums eines Tumors: i.p. 3x at 24 h intervals from day 4-6 after inoculation, dose I 17.1, II 17,1-27,3, III 27,3, CDDP 8,1, DNS 18,0 mg/kg
# From the text: Die erfindungsgemässen Verbindung weisen antineonlastische Aktivität in Verbindung mit einer immunomudulierenden Wirkung auf. Die beanspruchten Verbindungen und das erfindungsgemässe Arzneipräparat mit antineoplastischer Wirkung wurden in Versuchen an Tieren und in Kliniken an Menschen untersucht. Untersucht wurde ihre antineoplastische Aktivität gegenüber der überimnften Shvetz-Erythromyelose Die antineoplastische Aktivität jedes der angemeldeten Stoffe bewertete man nach den Ergebnissen der Versuche, die an weissen rassenlosen Ratten mit einem Gewicht von 150 bis 200 g (in Gruppen zu je 10 Tieren) angestellt wurden. Den Tieren wurden 2.10^8 - 2.10^10 Zellen des überimpften Stammes der Shvetz-Erythromyelose subkutan in die Hüfte inokuliert. Am 4. bis 6. Tag nach der Inokulation der Tumorzellen, das heisst in der Periode der logarythmischen Phase des Wachstums eines Tumors, begann man, den Tieren die erfindungsgemässen Verbindungen einzuführen. Die angemeldeten Verbindungen wurden intraperitoneal dreimal mit einem Zeitabstand von 24 stunden in Form von wässerigen Lösungen beziehungsweise wässerigen Suspensionen eingeführt.
# Antineoplastische Wirkung der erfindung sgemässen Verbindungen wurde im Vergleich zur Kontrolle (ohne Anwendung der Präparate) und im Vergleich zu den CDDP- und DNS-Präparaten untersucht.
# Die antineoplastische Aktivität bewertete man nach folgenden biologischen Kenndaten: Grad der Hemmung des Wachstums eines Tumors, der Uberlebenskraft von Tieren am 10. Tag nach der Inokulation vom Tumorzellen sowie der Lebensdauer von Tieren.
# [5] = Acute toxicity, intraperitoneal, rats and mice (with histology of kidney and gut); format: in vivo, weissen rassenlosen Ratten; weissen nichtlinearen Mäusen; conditions: i.p. 3x at 2 h intervals, total dose
# From the text: Die Anzahl der krepierten Tiere in jeder Gruppe wurde alle 21 bis 48 Stunden registriert. In jeder Gruppe waren je 12 Tiere (6 Männchen und 6 Weibchen), die Versuche wurden zweimal wiederholt. Die Ergebnisse der Versuche sind in der Tabelle 2 angeführt.
# Die krepierten Tiere wurden obduziert und man führte hystologische Untersuchungen der Nieren und des Darmes durch. Die Tiere, die die beanspruchten Stoffe in einer unter der toxischen Dosis liegenden Menge verabreicht bekamen, wurden in I4 Tagen getötet. Die inneren Organe derselben wurden der Autopsie ausgesetzt.
# [6] = CDDP in combination with Vinblastin, Bleomycin, Aktinomycin und Prednisolon; cited from earlier work
# [7] = tested on: antikörperbildenden Zellen in der Milz; test: Antibody-forming cells in the spleen of mice immunised with sheep erythrocytes; format: in vivo, Mäusen der CBA-Linien und C57Bl6-Linie; conditions: CBA and C57Bl6 mice, day 4; CDDP 8,1, DNS 6,0, compounds 13,6 mg/kg i.p.; numeric Table 6 is an image
# Description: Es wurden Untersuchungen des Einflusses der bean - spruchten Stoffe im Vergleich zu den CDDP- und DNS-Präparaten auf die Bildung von antikörperbildenden Zellen in der Milz von zwei gegensätzlich auf die Hammelerythrozyte reagierenden Mäuse-Linien durchgeführt.
# In I Stunde wurden die Tiere immunisiert, indem man ihnen intraperitoneal […] Zellen der Hammelerythrozyte einführte . Am 4. Tag ermittelte man die Anzahl der antikörperbildenden Zellen in der Milz der Tiere der Versuchs-und der Kontrollgruppe (ohne Einführung des Präparats). Der Gehalt an antikörperbildenden Zellen berechnete man auf […] Splenozyte und auf die ganze Milz. Die Ergebnisse der Untersuchungen sind in der Tagelle 6 dargestellt.
# [8] = tested on: humorale Immunität; test: Humoral immunity in tumour-bearing rats immunised with sheep erythrocytes; format: in vivo, Ratten der Wistar-Linie; conditions: treated tumour bearers, 4 days after immunisation
# From the text: Der Einfluss auf die homorale Immunität (Antiteloge- nese)- bewertete man nach der Menge von antikörperbildenden Zellen in der Milz und nach dem Titer von Agglutininen und Hämolysinen im Blütserum.
# Der Einfluss der beansprucheen Stoffe auf die humorale Immunität wurde auch im Vergleich zum CDDP und zur DNS untersucht. Dafür wurden Ratten,Tumorträger der Shvetz-Erythromyelose der Wistar-Linie eingesetzt, denen man ein Tumor subkutan in die Hüfte überimpfte. Am 4. Tag nach der Uberimpfung des Tumors begann man ihre Behandlung nach dem gleichen Schema wie auch bei der Untersuchung der zellulären Immunität. Am 8. Tag nach der Uberimpfung des Tumors führte man die Immunisierung der Tiere durch, indem man ihnen intraperitoneal Hammelerythrozyte in einer Dosis von 2.10^6 Zellen einführt. In 4. Tagen nach der Immunisierung tötete man die Tiere mittels Dekapitation unter Anwendung von Athernarkose und man ermittelte den Gehalt an antikörperbildenden Zellen in der Milz nach der Erne-Methode und die Agglutinine- und Hämolysine-Titer im periphärischen Blut mit bekanntnn Methoden.
# Der Gehalt an antikörperbildenden Zellen ermittelte man, berechnet auf I0^6 Splenozyte und auf die Gesamtmasse der Milz. Dee Versuchergebnisse sind in der Tabelle 4 angeführt.
# [9] = Solubility; format: physicochemical; conditions: 20°C
Compound,Die Zeit der Abstossung (in Tagen) eines Hauptlappens [1],pH-Wert [2],"lg2 Antikörper-Titer ([3]; Linie der Mäuse C57Bl6, day 14)","lg2 Antikörper-Titer ([3]; Linie der Mäuse C57Bl6, day 30)","lg2 Antikörper-Titer ([3]; Linie der Mäuse CBA, day 14)","lg2 Antikörper-Titer ([3]; Linie der Mäuse CBA, day 30)",Grad der Hemmung des Wachstums eines Tumors [4] [%],increase of Uberlebenskraft von Tieren compared with CDDP ([4]; versus CDDP) [%],LD50 ([5]; in Suspension),"lg2 Antikörper-Titer ([3]; Linie der Mäuse C57Bl6, day 7)","Uberlebenskraft von Tieren ([4]; day 10 after inoculation of tumour cells, same doses as E1) [%]",Effektivität der Behandlung einer Eierstockgeschwulst [6] [%],Gehalt an antikörperbildenden Zellen in der Milz [7],Gehalt an antikörperbildenden Zellen je 10^6 Splenozyte [8],LDI00 ([5]; in Lösung),LDI00 ([5]; in Suspension),Löslichkeit in Wasser [9],"lg2 Antikörper-Titer ([3]; Linie der Mäuse CBA, day 7, single i.p. dose (compounds 13,6, CDDP 8,1, DNS 6,0 mg/kg))",LD50 ([5]; in Lösung)
Poly{hexakis [chlor- amminaquaplatin(II)]} - µ - desoxyribonukleat [Verbindung III],"6,5±0,5 Tagen","5,44","6,68±0,29","6,32±0,24","8,40±0,42","8,50±0,30",95,20,"82,5 mg/kg",,,,,,,,,,
"N.N.[Cl][Pt][Cl] [CDDP, cis-Dichlorodiaminplatin(II)]",,,,,,,78,,,"3,80±0,24",80,100,senken,"20,37±2,03",,,,,
Poly{hexakis-[Chloroammindiaquaplatin (II)]} - µ - desoxyribonukleat [Verbindung I],,"5,42","6,82±0,38",,,,84,,,,,,,"68,4±9,38","84,0 mg/kg","84,0 mg/kg","0,002%",,
Poly {bis[hydroxochloramminaquaplatin(II)] - tetrakis[chloroammindiaquaplatin(II)] - µ - desoxyribonukleat [Verbindung II],"6,5±0,5 Tagen","> 5,38",,,"7,60±0,32","6,40±0,42",94,,"66,0 mg/kg","6,60±0,32",,,,,,,"0,0075%","7,20±0,30","66,0 mg/kg"
